Source: patent US20070207121A1, “Methods of Using and Compositions Comprising Selective Cytokine Inhibitory Drugs for Treatment and Management of Macular Degeneration” (priority 2003, published 2007)

Experiments:
[1] = system: patients with macular degeneration; assay: Clinical study in patients with macular degeneration, adjuvant to photodynamic therapy with verteporfin; type: in vivo, human; conditions: about 20 mg/day as adjuvant for 20 weeks with verteporfin photodynamic therapy
Description: Selective cytokine inhibitory drugs of the invention are administered in an amount of about 20 to about 1,200 mg per day to patients with macular degeneration. In a specific embodiment, clinical studies are performed with forty patients with macular degeneration, who are divided into two groups. The first group receives conventional treatment for closing the leaking choroidal vessels (characteristic of this disease) by photodynamic therapy with verteporfin. Opthalmol 1999 (117): 1329-1345. The second group receives the same conventional therapy with verteporfin and (+)-2-[1-(3-ethoxy-4 methoxyphenyl)-2-methylsulfonylethyl]-4 acetylaminoisoindoline 1,3-dione in an amount of about 20 mg/day as an adjuvant for 20 weeks.
However, the first group without (+)-2-[1-(3-ethoxy-4 methoxyphenyl)-2-methylsulfonylethyl]-4-acetylaminoisoindoline 1,3-dione experiences progressive reperfusion of the ablated vessels several weeks after treatment. Progressive visual loss follows which requires the photodynamic therapy to be repeated.

[2] = system: TNF-α production; assay: Inhibition of TNF-α production following LPS-stimulation of human PBMC and human whole blood (in vitro pharmacology studies); type: cell-based; conditions: more potent than thalidomide
Source text: One of the biological effects typically exerted by selective cytokine inhibitory drugs is the reduction of synthesis of TNF-α Specific selective cytokine inhibitory drugs enhance the degradation of TNF-αmRNA. TNF-α may play a pathological role in macular degeneration.
In a specific embodiment, the pharmacological properties of 3-(3,4-dimethoxy-phenyl)-3-(1-oxo-1,3-dihydro-isoindol-2-yl)-propionamide are characterized in in vitro studies. Studies examine the effects of the compound on the production of various cytokines. Inhibition of TNF-α production following LPS-stimulation of human PBMC and human whole blood by the compound is investigated in vitro. […] The pharmacological effects of 3-(3,4-dimethoxy-phenyl)-3-(1-oxo-1,3-dihydro-isoindol-2-yl)-propionamide may derive from its action as an inhibitor of the generation of inflammatory cytokines.

[3] = system: patients with MD; conditions: intravitreal injection, over a one-year period; cited from earlier work
[4] = system: laser-induced CNVM; conditions: intravitreal injection, monkeys; cited from earlier work
[5] = system: MD; conditions: cited from earlier work

Question: Which results are given for CCOc1cc(C(CS(C)(=O)=O)N2C(=O)c3cccc(NC(C)=O)c3C2=O)ccc1OC (single isomer, unassigned; (+)) [(+)-2-[1-(3-ethoxy-4 methoxyphenyl)-2-methylsulfonylethyl]-4 acetylaminoisoindoline 1,3-dione]?
Answer: effects of the photodynamic therapy [1]: indefinitely prolong; neovascular cascade [1]: sufficiently hindered

Question: For COc1ccc(C(CC(N)=O)N2Cc3ccccc3C2=O)cc1OC (stereo not shown) [3-(3,4-dimethoxy-phenyl)-3-(1-oxo-1,3-dihydro-isoindol-2-yl)-propionamide], which “pharmacological activity profile, potency relative to thalidomide” value [2] is on record?
Answer: Its value is “five to fifty”.

Question: Which results are given for C[C@]12C=CC(=O)C=C1CC[C@H]1[C@@H]3C[C@@H](O)[C@](O)(C(=O)CO)[C@@]3(C)C[C@H](O)[C@@]12F [triamcinolone]?
Answer: prevention of severe visual loss [3]: fails to prevent severe visual loss; growth of laser-induced CNVM [4]: inhibits

Question: Which “efficacy at treating MD” value ([5]; clinical trial) does the source give for interferon-α here?
Answer: Its value is “ineffective”.

Question: And the adverse effects ([5]; in vivo)?
Answer: The adverse effects was “high rate of adverse effects”.
